Source: paper PMC11915372, “Identification of a Series Containing a Pentafluorophenyl Moiety That Targets Pks13 to Inhibit Growth of Mycobacterium tuberculosis” (ACS Infectious Diseases, 2025)
In brackets after ≈: the same amount, converted by molar mass. Where two headings read alike, the source gives them in different places.

Columns and labels:
physchem [1] = type: physicochemical
M. tuberculosis (H37Rv) = test: microbe, parasite or virus in culture; type: cell-based, Mycobacterium tuberculosis; settings: Mycobacterium tuberculosis, H37RV
in vitro = settings: plasma
in vivo = settings: C57BL/6J, mouse, po
[2] = mouse, in vivo
[3] = test system: H37Rv growing inside J774 macrophages; test: Intramacrophage efficacy; type: cell-based, Mycobacterium tuberculosis; settings: 7 days of treatment
M. tuberculosis H37Rv [4] = type: cell-based, Mycobacterium tuberculosis
[5] = efficacy experiment at 20 times the oral PK dose
M. tuberculosis H37Rv [6] = type: in vivo; settings: C57BL/6J mice, oral dosing for 8 days from day 1 post-infection, qPCR
[7] = type: in vitro ADME, mouse
physchem [8] = settings: pH 7.4
HepG2 cells = test: HepG2 cytotoxicity; settings: Homo sapiens, HepG2, read-out: HepG2 inhibitory concentration (IC50)
Text: Assays to establish HepG2 cytotoxicity, in vitro microsomal/hepatocyte metabolic stability, aqueous kinetic solubility, and in vivo pharmacokinetic profiles were all performed as previously described.[15],[35]−[37]

[9] = type: in vitro ADME, mouse; remark: listed apart in the source
[10] = human liver microsomes
[11] = test system: mycolic acid biosynthesis; settings: with accumulation of mycolic acid precursors; cited from earlier work
[12] = pH 7.4, aqueous buffer, kinetic from dmso stock
[13] = read-out: Wk2_7H9/DPPC/ casitone/ Tyloxapol MIC
[14] = read-out: Wk2_ 7H9/DPPC/ cholesterol/BSA/ Tyloxapol MIC
[15] = read-out: Wk2_7H9/glucose/ BSA/Tyloxapol MIC
[16] = read-out: Wk2_7H9/glucose/ casitone/ Tyloxapol MIC

| Structure (SMILES) | solubility kinetic (physchem [1]; [12]) | solubility kinetic (physchem [1]; read-out: Kin. Sol) | MIC (M. tuberculosis (H37Rv); read-out: H37Rv MIC A) | MIC (M. tuberculosis (H37Rv); read-out: H37Rv MIC B) | MIC (M. tuberculosis (H37Rv); [13]) | MIC (M. tuberculosis (H37Rv); [14]) | MIC (M. tuberculosis (H37Rv); [15]) | MIC (M. tuberculosis (H37Rv); [16]) | Hepatocyte Cli ([7]; mouse) | Mouse Heps Cl ([7]; mouse, hepatocytes) | chromatographic logD (physchem [8]) | IC50 (HepG2 cells) | Microsomal Cli ([9]; CD1, mouse) | Mouse micro Cl ([9]; mouse, microsomes) | also measured |
| --- | --- | --- | --- | --- | --- | --- | --- | --- | --- | --- | --- | --- | --- | --- | --- |
| Cc1noc(-c2nc(C)oc2NC(=O)c2c(F)c(F)c(F)c(F)c2F)n1 [Compound 43, Cc1noc(n1)-c1nc(oc1NC(=O)c1c(c(c(c(c1F)F)F)F)F)C] | 196 µM (≈ 73.3 µg/mL) | 196 µM (≈ 73.3 µg/mL) | 0.8 µM (≈ 0.299 µg/mL) | 1.8 µM (≈ 0.674 µg/mL) | 0.8 µM (≈ 0.299 µg/mL) | 1.8 µM (≈ 0.674 µg/mL) | 1.8 µM (≈ 0.674 µg/mL) | 0.7 µM (≈ 0.262 µg/mL) | 3.4 mL/min/g | 3.4 mL/min/g | 1.2 | > 100 µM | <0.5 mL/min/g | <0.5 mL/min/g | fraction unbound (in vitro): 0.03; AUC(0-t) (in vivo): 167 µg·h/mL; Cmax (in vivo): 30000 ng/mL; bioavailability [2]: very good; clearance [2]: very good; half-life [2]: moderate; volume of distribution [2]: limited; concentration required to exert a cidal effect [3]: 10 µM; CFU reduction relative to input bacterial counts (M. tuberculosis H37Rv [4]; treatment for 3 days): ~1 log units; CFU reduction relative to input bacterial counts (M. tuberculosis H37Rv [4]; treatment for 7 days): ~2 log units; increase of Cmax in the animal efficacy study versus oral PK study [5]: < 3 fold; reduction in bacterial DNA in lungs compared to the untreated control (M. tuberculosis H37Rv [6]): no reduction in DNA levels; parental material remaining ([10]; after 90 min, glutathione/NADPH): 57% |
| COc1c(N2C[C@@H]3CCCN[C@@H]3C2)c(F)cc2c(=O)c(C(=O)O)cn(C3CC3)c12 [Moxifloxacin, reference compound] | – | – | – | – | – | – | – | – | – | – | – | – | – | – | reduction in bacterial DNA in lungs compared to the untreated control (M. tuberculosis H37Rv [6]): ~3 log |
| COC(=O)c1c(NC(=O)c2c(F)c(F)c(F)c(F)c2F)sc2c1CCCCC2 [TP2, reference compound] | – | – | 0.11 µM (≈ 0.0461 µg/mL) | 1.2 µM (≈ 0.503 µg/mL) | – | – | – | – | – | 43.2 mLmin/g | 4.6 | 13 µM | – | 15 mLmin/g | solubility kinetic (physchem [1]; water, kinetic from dmso stock): 0.2 µM (≈ 0.0839 µg/mL); effect on mycolic acid biosynthesis [11]: inhibited mycolic acid biosynthesis; time to complete elimination of parent ([10]; glutathione conjugation): ≤ 6 min |
| COC(=O)c1cnccc1NC(=O)c1c(F)c(F)c(F)c(F)c1F [Compound 16, COC(=O)c1cnccc1NC(=O)c1c(c(c(c(c1F)F)F)F)F] | 112 µM (≈ 38.8 µg/mL) | 112 µM (≈ 38.8 µg/mL) | 0.1 µM (≈ 0.0346 µg/mL) | 0.6 µM (≈ 0.208 µg/mL) | 0.1 µM (≈ 0.0346 µg/mL) | 0.6 µM (≈ 0.208 µg/mL) | 0.3 µM (≈ 0.104 µg/mL) | 0.15 µM (≈ 0.0519 µg/mL) | >50 mL/min/g | >50 mLmin/g | 3.2 | 64 µM | 20 mL/min/g | 20 mLmin/g | – |
| CC(=O)c1nc(C)oc1NC(=O)c1c(F)c(F)c(F)c(F)c1F [Compound 39, CC(=O)c1nc(oc1NC(=O)c1c(c(c(c(c1F)F)F)F)F)C] | 241 µM (≈ 80.5 µg/mL) | 241 µM (≈ 80.5 µg/mL) | 1.2 µM (≈ 0.401 µg/mL) | 3.1 µM (≈ 1.04 µg/mL) | 1.2 µM (≈ 0.401 µg/mL) | 3.1 µM (≈ 1.04 µg/mL) | 3.1 µM (≈ 1.04 µg/mL) | 1.2 µM (≈ 0.401 µg/mL) | 8.6 mL/min/g | 8.6 mL/min/g | 1.2 | > 100 µM | <0.5 mL/min/g | <0.5 mL/min/g | – |
| COC(=O)c1nn(C)cc1NC(=O)c1c(F)c(F)c(F)c(F)c1F [Compound 19, COC(=O)c1nn(cc1NC(=O)c1c(c(c(c(c1F)F)F)F)F)C] | – | – | 0.15 µM (≈ 0.0524 µg/mL) | – | 0.15 µM (≈ 0.0524 µg/mL) | – | 0.3 µM (≈ 0.105 µg/mL) | 0.2 µM (≈ 0.0698 µg/mL) | – | – | 2.7 | > 100 µM | – | – | solubility kinetic (physchem [1]; kinetic solubility in water, read-out: Kin. Sol): 55 µM (≈ 19.2 µg/mL); solubility kinetic (physchem [1]; pH 7.4, aqueous buffer, kinetic from dmso stock, pH7.4, read-out: Kinetic Solubility pH7.4): 55 µM (≈ 19.2 µg/mL); Mouse Heps Cl ([7]; intrinsic clearance (Cli), mouse hepatocytes, Tables 1-4): >50 mLmin/g; Hepatocyte Cli ([7]; supplement data table): >50 mL/min/g; Mouse micro Cl ([9]; intrinsic clearance (Cli), CD1 mouse liver microsomes, Tables 1-4): 23 mLmin/g; Microsomal Cli ([9]; supplement data table): 23 mL/min/g |
| Cc1nc(-c2ncco2)c(NC(=O)c2c(F)c(F)c(F)c(F)c2F)o1 [Compound 41, Cc1nc(c(o1)NC(=O)c1c(c(c(c(c1F)F)F)F)F)-c1ncco1] | 234 µM (≈ 84.1 µg/mL) | 234 µM (≈ 84.1 µg/mL) | 0.4 µM (≈ 0.144 µg/mL) | 1.2 µM (≈ 0.431 µg/mL) | 0.4 µM (≈ 0.144 µg/mL) | 1.2 µM (≈ 0.431 µg/mL) | 1.2 µM (≈ 0.431 µg/mL) | 0.4 µM (≈ 0.144 µg/mL) | 12 mL/min/g | 12 mL/min/g | 1.7 | > 100 µM | 0.5 mL/min/g | 0.51 mL/min/g | – |
| COC(=O)c1nc(C)oc1NC(=O)c1c(F)c(F)c(F)c(F)c1F [Compound 23, COC(=O)c1nc(oc1NC(=O)c1c(c(c(c(c1F)F)F)F)F)C] | 237 µM (≈ 83 µg/mL) | 237 µM (≈ 83 µg/mL) | 0.6 µM (≈ 0.21 µg/mL) | 1.2 µM (≈ 0.42 µg/mL) | 0.6 µM (≈ 0.21 µg/mL) | 1.2 µM (≈ 0.42 µg/mL) | 1.2 µM (≈ 0.42 µg/mL) | 0.6 µM (≈ 0.21 µg/mL) | 8.1 mL/min/g | 8.1 mLmin/g | 1.4 | > 100 µM | <0.5 mL/min/g | <0.5 mLmin/g | – |
| Cc1nc(C(=O)N(C)C)c(NC(=O)c2c(F)c(F)c(F)c(F)c2F)o1 [Compound 40, CN(C)C(=O)c1nc(oc1NC(=O)c1c(c(c(c(c1F)F)F)F)F)C] | 242 µM (≈ 87.9 µg/mL) | 242 µM (≈ 87.9 µg/mL) | 12.5 µM (≈ 4.54 µg/mL) | 19 µM (≈ 6.9 µg/mL) | 12.5 µM (≈ 4.54 µg/mL) | 19 µM (≈ 6.9 µg/mL) | 19 µM (≈ 6.9 µg/mL) | 9.4 µM (≈ 3.41 µg/mL) | 7.3 mL/min/g | 7.3 mL/min/g | 1.4 | > 100 µM | 0.846 mL/min/g | 0.85 mL/min/g | – |
| CCOC(=O)c1c(NC(=O)c2c(F)c(F)c(F)c(F)c2F)sc(C(N)=O)c1C [TP4, reference compound] | – | – | 0.03 µM (≈ 0.0127 µg/mL) | 0.26 µM (≈ 0.11 µg/mL) | – | – | – | – | – | >50 mLmin/g | 3.4 | 4.3 µM | – | 13 mLmin/g | solubility kinetic (physchem [1]; water, kinetic from dmso stock): 1.1 µM (≈ 0.465 µg/mL); effect on mycolic acid biosynthesis [11]: inhibited mycolic acid biosynthesis |
